Test results from patent US12037583B2, “Compositions and methods for immunooncology” (Novartis AG, priority 2015, dated 2024).

Tests used:
PDCD1 = assay: NGS editing of PDCD1 by dgRNA in HEK cells stably expressing Cas9; type: cell-based, human; conditions: at least 3 experiments;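 further: dgRNA lipofected into Cas9-expressing HEK cells, lysed after 24 h, target amplicon sequenced, editing = reads carrying insertions or deletions as percent of all reads including wild type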
Description: Transfection of Cas9GFP-expressing HEK293 cells (HEK-293_Cas9GFP) was used for primary screening of target specific crRNAs. […] Selected crRNAs were chemically synthesized and delivered in a 96 well format. HEK-293-Cas9GFP cells were transfected with target crRNAs comprising a flagpole region of SEQ ID NO: 6607 in a 1:1 ratio with stock trRNA of SEQ ID NO: 6660. The transfection was mediated using lipofection technology according to manufacturer's protocol (DharmaFECT Duo, GE LifeSciences; or RNAiMax, LifeTechnologies). Transfected cells were lysed 24 h following lipofection and editing (e.g., cleavage) was detected within lysates with the T7E1 assay and/or next generation sequencing (NGS; below).
PCR primers were first designed around the target site, and the genomic area of interest PCR amplified. Additional PCR was performed according to manufacturer's protocols (Illumina) to add the necessary chemistry for sequencing. The amplicons were then sequenced on an Illumina MiSeq instrument. The reads were then aligned to the human reference genome (e.g., hg38) after eliminating those having low quality scores. From the resulting files containing the reads mapped to the reference genome (BAM files), reads which overlap the target region of interest were selected and the number of wild type reads versus the number of reads which contain an insertion or deletion was calculated. The editing percentage was then defined as the total number of reads with insertions or deletions over the total number of reads, including wild type. To determine the pattern of insertions and/or deletions that resulted from the edit, the aligned reads with indels were selected and the number of a reads with a given indel were summed.
Editing of CRISPR systems containing dgRNA molecules comprising targeting domains to sequences of PDCD1 were tested for editing in HEK (gRNA delivered to cells stably expressing Cas9) and CD3+ T cells (gRNA and Cas9 delivered as RNP) according to the methods described herein.
All mean editing % are as measured by NGS and are based on at least 3 experiments.

CIITA = assay: NGS editing and frameshift edit of CIITA by dgRNA in HEK293 cells expressing Cas9; type: cell-based, human; conditions: HEK293 cells stably expressing Cas9, dgRNA to CIITA; for Avg. % Edit: N = 3; for Avg. % FS: frameshift edit
Protocol: Editing of CIITA with dgRNAs targeted to the CIITA gene were assayed in HEK293 cells engineered to express Cas9, as described above in Example 1.

Substance	HEK (NGS) % Editing Mean (PDCD1) [%]	Avg. % Edit (CIITA) [%]	Avg. % FS (CIITA) [%]
CR000824: dgRNA targeting domain to PDCD1 (guide UCAGGCGGAGGUGAGCGGAA; targeting domain within dual guide RNA, chemistry not given here, further chemistry not given here; listed as Homo sapiens)	54		
CR000825: dgRNA targeting domain to PDCD1 (guide CUCAGGCGGAGGUGAGCGGA; targeting domain within dual guide RNA, chemistry not given here, further chemistry not given here; listed as Homo sapiens)	46		
CR000826: dgRNA targeting domain to PDCD1 (guide ACUGCUCAGGCGGAGGUGAG; targeting domain within dual guide RNA, chemistry not given here, further chemistry not given here; listed as Homo sapiens)	70		
CR000827: dgRNA targeting domain to PDCD1 (guide GCUCACCUCCGCCUGAGCAG; targeting domain within dual guide RNA, chemistry not given here, further chemistry not given here; listed as Homo sapiens)	39		
CR000828: dgRNA targeting domain to PDCD1 (guide CUUCUCCACUGCUCAGGCGG; targeting domain within dual guide RNA, chemistry not given here, further chemistry not given here; listed as Homo sapiens)	69		
CR000829: dgRNA targeting domain to PDCD1 (guide CAGUGGAGAAGGCGGCACUC; targeting domain within dual guide RNA, chemistry not given here, further chemistry not given here; listed as Homo sapiens)	68		
CR000830: dgRNA targeting domain to PDCD1 (guide UGGAGAAGGCGGCACUCUGG; targeting domain within dual guide RNA, chemistry not given here, further chemistry not given here; listed as Homo sapiens)	57		
CR000831: dgRNA targeting domain to PDCD1 (guide GGAGAAGGCGGCACUCUGGU; targeting domain within dual guide RNA, chemistry not given here, further chemistry not given here; listed as Homo sapiens)	66		
CR000832: dgRNA targeting domain to PDCD1 (guide GAGAAGGCGGCACUCUGGUG; targeting domain within dual guide RNA, chemistry not given here, further chemistry not given here; listed as Homo sapiens)	49		
CR000833: dgRNA targeting domain to PDCD1 (guide AGGCGCCCUGGCCAGUCGUC; targeting domain within dual guide RNA, chemistry not given here, further chemistry not given here; listed as Homo sapiens)	34		
CR000835: dgRNA targeting domain to PDCD1 (guide GCCCUGGCCAGUCGUCUGGG; targeting domain within dual guide RNA, chemistry not given here, further chemistry not given here; listed as Homo sapiens)	69		
CR000836: dgRNA targeting domain to PDCD1 (guide CACCGCCCAGACGACUGGCC; targeting domain within dual guide RNA, chemistry not given here, further chemistry not given here; listed as Homo sapiens)	5		
CR000840: dgRNA targeting domain to PDCD1 (guide GGGCGGUGCUACAACUGGGC; targeting domain within dual guide RNA, chemistry not given here, further chemistry not given here; listed as Homo sapiens)	59		
CR000841: dgRNA targeting domain to PDCD1 (guide CGGUGCUACAACUGGGCUGG; targeting domain within dual guide RNA, chemistry not given here, further chemistry not given here; listed as Homo sapiens)	19		
CR000842: dgRNA targeting domain to PDCD1 (guide CACCUACCUAAGAACCAUCC; targeting domain within dual guide RNA, chemistry not given here, further chemistry not given here; listed as Homo sapiens)	40		
CR000843: dgRNA targeting domain to PDCD1 (guide GAGAAGGUGGGGGGGUUCCA; targeting domain within dual guide RNA, chemistry not given here, further chemistry not given here; listed as Homo sapiens)	8		

Substance	HEK (NGS) % Editing Mean (PDCD1) [%]	Avg. % Edit (CIITA) [%]	Avg. % FS (CIITA) [%]
CR000844: dgRNA targeting domain to PDCD1 (guide CGGUCACCACGAGCAGGGCU; targeting domain within dual guide RNA, chemistry not given here, further chemistry not given here; listed as Homo sapiens)	25		
CR000845: dgRNA targeting domain to PDCD1 (guide UCGGUCACCACGAGCAGGGC; targeting domain within dual guide RNA, chemistry not given here, further chemistry not given here; listed as Homo sapiens)	21		
CR000846: dgRNA targeting domain to PDCD1 (guide GCCCUGCUCGUGGUGACCGA; targeting domain within dual guide RNA, chemistry not given here, further chemistry not given here; listed as Homo sapiens)	46		
CR000847: dgRNA targeting domain to PDCD1 (guide CCCUUCGGUCACCACGAGCA; targeting domain within dual guide RNA, chemistry not given here, further chemistry not given here; listed as Homo sapiens)	77		
CR000848: dgRNA targeting domain to PDCD1 (guide CCCUGCUCGUGGUGACCGAA; targeting domain within dual guide RNA, chemistry not given here, further chemistry not given here; listed as Homo sapiens)	65		
CR000849: dgRNA targeting domain to PDCD1 (guide CCCCUUCGGUCACCACGAGC; targeting domain within dual guide RNA, chemistry not given here, further chemistry not given here; listed as Homo sapiens)	29		
CR000850: gRNA targeting domain to PDCD1, CCUGCUCGUGGUGACCGAAG (SEQ ID NO: 5746) (targeting domain within guide RNA, chemistry not given here, further chemistry not given here; listed as Homo sapiens)	55		
CR000851: dgRNA targeting domain to PDCD1 (guide GAAGGUGGCGUUGUCCCCUU; targeting domain within dual guide RNA, chemistry not given here, further chemistry not given here; listed as Homo sapiens)	4		
CR000852: dgRNA targeting domain to PDCD1 (guide GUUGGAGAAGCUGCAGGUGA; targeting domain within dual guide RNA, chemistry not given here, further chemistry not given here; listed as Homo sapiens)	72		
CR000853: gRNA targeting domain to PDCD1, CACGAAGCUCUCCGAUGUGU (SEQ ID NO: 5749) (targeting domain within guide RNA, chemistry not given here, further chemistry not given here; listed as Homo sapiens)	33		
CR000854: dgRNA targeting domain to PDCD1 (guide CGGAGAGCUUCGUGCUAAAC; targeting domain within dual guide RNA, chemistry not given here, further chemistry not given here; listed as Homo sapiens)	24		
CR000855: dgRNA targeting domain to PDCD1 (guide UCUGGUUGCUGGGGCUCAUG; targeting domain within dual guide RNA, chemistry not given here, further chemistry not given here; listed as Homo sapiens)	61		
CR000857: dgRNA targeting domain to PDCD1 (guide AGCUUGUCCGUCUGGUUGCU; targeting domain within dual guide RNA, chemistry not given here, further chemistry not given here; listed as Homo sapiens)	1		
CR003025 (guide GUGACUGGCAGUCUCCUAGU; targeting domain within dual guide RNA, chemistry not given here, further chemistry not given here; listed as Homo sapiens)		24.52	19.21
CR003026 (guide AGUCGCUCACUGGUCCCACU; targeting domain within dual guide RNA, chemistry not given here, further chemistry not given here; listed as Homo sapiens)		29.63	20.05
